# Target: Butyrylcholinesterase (Rattus norvegicus) (UniProt Q9JKC1)
# Test: Inhibition of rat serum butyrylcholinesterase using butyrylthiocholine iodide as substrate at 50 uM incubated for 15 mins by Ellman's method relative to control
# Conditions: not given
# Chain of Butyrylcholinesterase (Rattus norvegicus) (Q9JKC1 as listed by the source): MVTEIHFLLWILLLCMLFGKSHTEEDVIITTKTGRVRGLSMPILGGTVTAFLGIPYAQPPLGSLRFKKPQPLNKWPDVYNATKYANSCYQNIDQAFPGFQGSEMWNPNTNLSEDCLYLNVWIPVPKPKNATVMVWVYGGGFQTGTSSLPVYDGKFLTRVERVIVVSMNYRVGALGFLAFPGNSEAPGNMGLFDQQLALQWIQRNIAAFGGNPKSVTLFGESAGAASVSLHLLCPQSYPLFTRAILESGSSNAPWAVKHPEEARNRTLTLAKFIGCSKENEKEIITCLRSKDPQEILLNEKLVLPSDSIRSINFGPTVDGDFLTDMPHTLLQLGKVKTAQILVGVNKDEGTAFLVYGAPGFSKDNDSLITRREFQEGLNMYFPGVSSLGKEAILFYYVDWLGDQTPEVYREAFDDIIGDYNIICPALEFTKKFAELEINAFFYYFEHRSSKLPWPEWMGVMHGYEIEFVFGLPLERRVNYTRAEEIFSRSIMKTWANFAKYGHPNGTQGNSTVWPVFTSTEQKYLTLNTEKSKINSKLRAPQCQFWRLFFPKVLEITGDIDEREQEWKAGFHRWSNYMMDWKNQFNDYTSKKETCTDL
row,Compound,inhibition [%]
1,CCN(CC)Cc1ccc(/C=C/c2cnc(C)c3c2COC(C)(C)O3)cc1O,8.9

# Tested on: not listed separately
# Test: Antioxidant activity of compound by ORAC-FL assay relative to trolox
# Assay type: functional
# Conditions: not given
row,Compound,Ratio
1,COc1cc(/C=C/C(=O)N(CCCC2CCN(Cc3ccccc3)CC2)CC(=O)NCc2ccccc2)ccc1O,4.8 to 8.71
2,COc1cc(/C=C/C(=O)N(CCC2CCN(Cc3ccccc3)CC2)CC(=O)Nc2ccc3ccccc3c2)ccc1O,4.8 to 8.71
3,COc1cc(/C=C/C(=O)N(CC(=O)Nc2c(C)cccc2Cl)C2CCN(Cc3ccccc3)CC2)ccc1O,4.8 to 8.71
4,COc1cc(/C=C/C(=O)N(CCCC2CCN(Cc3ccccc3)CC2)CC(=O)Nc2c(C)cccc2Cl)ccc1O,4.8 to 8.71
5,COc1cc(/C=C/C(=O)N(CCC2CCN(Cc3ccccc3)CC2)CC(=O)Nc2c(C)cccc2Cl)ccc1O,4.8 to 8.71
6,COc1cc(/C=C/C(=O)N(CCC2CCN(Cc3ccccc3)CC2)CC(=O)NCc2ccccc2)ccc1O,4.8 to 8.71
7,COc1ccc2[nH]cc(CCNC(=O)CN(C(=O)/C=C/c3ccc(O)c(OC)c3)C3CCN(Cc4ccccc4)CC3)c2c1,4.8 to 8.71
8,COc1cc(/C=C/C(=O)N(CCCC2CCN(Cc3ccccc3)CC2)CC(=O)Nc2ccc3ccccc3c2)ccc1O,4.8 to 8.71
9,COc1cc(/C=C/C(=O)N(CC(=O)Nc2ccc3ccccc3c2)C2CCN(Cc3ccccc3)CC2)ccc1O,4.8 to 8.71
10,COc1cc(/C=C/C(=O)N(CC(=O)NCc2ccccc2)C2CCN(Cc3ccccc3)CC2)ccc1O,4.8 to 8.71

# Target: Acetylcholinesterase (Electrophorus electricus, UniProt O42275)
# Test: Inhibition of electric eel AChE using acetylthiocholine iodide as substrate preincubated for 15 mins followed by substrate addition and measured at 1 min intervals by Ellman's method
# Conditions: not given
# Chain of Acetylcholinesterase (Electrophorus electricus, UniProt O42275) (O42275 whole entry): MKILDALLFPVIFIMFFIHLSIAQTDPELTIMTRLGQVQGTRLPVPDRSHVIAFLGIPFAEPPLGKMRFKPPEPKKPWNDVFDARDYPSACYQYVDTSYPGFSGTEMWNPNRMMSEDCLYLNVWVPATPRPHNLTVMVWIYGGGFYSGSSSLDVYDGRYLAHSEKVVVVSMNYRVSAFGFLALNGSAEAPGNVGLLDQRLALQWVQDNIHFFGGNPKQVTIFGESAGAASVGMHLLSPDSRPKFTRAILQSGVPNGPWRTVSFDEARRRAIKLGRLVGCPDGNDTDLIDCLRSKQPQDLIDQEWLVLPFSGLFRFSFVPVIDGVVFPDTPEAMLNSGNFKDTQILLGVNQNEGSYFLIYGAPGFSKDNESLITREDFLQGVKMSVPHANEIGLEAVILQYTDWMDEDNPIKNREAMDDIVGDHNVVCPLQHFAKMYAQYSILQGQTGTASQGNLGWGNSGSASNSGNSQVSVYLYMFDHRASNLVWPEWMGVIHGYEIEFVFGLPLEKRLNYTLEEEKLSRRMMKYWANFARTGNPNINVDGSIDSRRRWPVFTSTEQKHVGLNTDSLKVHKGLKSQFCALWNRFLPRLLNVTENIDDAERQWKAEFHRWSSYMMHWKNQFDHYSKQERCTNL
row,Compound,IC50 [nM]
1,O=C(/C=C\C(=O)Nc1ccc2c(c1)C(=O)c1cccc3ccnc-2c13)NCCc1c[nH]c2ccc(F)cc12,15000
2,Cc1ccc2[nH]cc(CCNC(=O)/C=C\C(=O)Nc3ccc4c(c3)C(=O)c3cccc5ccnc-4c35)c2c1,5100
3,COc1ccc2[nH]cc(CCNC(=O)/C=C\C(=O)Nc3ccc4c(c3)C(=O)c3cccc5ccnc-4c35)c2c1,6100
4,O=C(/C=C/C(=O)Nc1ccc2c(c1)C(=O)c1cccc3ccnc-2c13)NCCc1c[nH]c2ccc(F)cc12,2370

# Target: Cholinesterase (Homo sapiens, UniProt P06276)
# Test: Inhibition of human serum butyrylcholinesterase using butyrylthiocholine iodide as substrate preincubated for 20 mins followed by substrate addition by Ellman's method
# Conditions: not given
# Chain of Cholinesterase (P06276 whole entry): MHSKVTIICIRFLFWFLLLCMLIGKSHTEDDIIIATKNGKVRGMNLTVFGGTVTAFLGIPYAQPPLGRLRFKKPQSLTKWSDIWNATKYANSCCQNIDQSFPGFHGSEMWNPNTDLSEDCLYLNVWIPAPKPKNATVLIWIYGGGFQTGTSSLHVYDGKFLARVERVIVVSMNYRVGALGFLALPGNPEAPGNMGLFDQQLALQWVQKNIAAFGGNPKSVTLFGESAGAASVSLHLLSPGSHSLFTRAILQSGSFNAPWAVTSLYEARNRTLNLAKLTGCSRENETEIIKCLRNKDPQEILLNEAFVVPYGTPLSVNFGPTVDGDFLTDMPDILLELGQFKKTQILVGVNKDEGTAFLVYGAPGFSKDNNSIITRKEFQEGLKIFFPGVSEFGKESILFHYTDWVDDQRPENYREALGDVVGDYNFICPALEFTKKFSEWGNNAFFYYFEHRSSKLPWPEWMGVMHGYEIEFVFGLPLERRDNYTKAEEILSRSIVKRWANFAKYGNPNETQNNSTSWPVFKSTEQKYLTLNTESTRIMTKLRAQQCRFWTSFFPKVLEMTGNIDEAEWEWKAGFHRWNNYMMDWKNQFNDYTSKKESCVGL
row,Compound,IC50 [nM]
1,c1ccc2c(NCCSSCCNc3c4c(nc5ccccc35)CCCC4)c3c(nc2c1)CCCC3,5.66

# Target: Sodium-dependent serotonin transporter (Rattus norvegicus, UniProt P31652)
# Test: Inhibition of rat synaptosome SERT assessed as reduction in [3H]5-HT uptake
# Conditions: not given
# Chain of Sodium-dependent serotonin transporter (P31652 whole entry): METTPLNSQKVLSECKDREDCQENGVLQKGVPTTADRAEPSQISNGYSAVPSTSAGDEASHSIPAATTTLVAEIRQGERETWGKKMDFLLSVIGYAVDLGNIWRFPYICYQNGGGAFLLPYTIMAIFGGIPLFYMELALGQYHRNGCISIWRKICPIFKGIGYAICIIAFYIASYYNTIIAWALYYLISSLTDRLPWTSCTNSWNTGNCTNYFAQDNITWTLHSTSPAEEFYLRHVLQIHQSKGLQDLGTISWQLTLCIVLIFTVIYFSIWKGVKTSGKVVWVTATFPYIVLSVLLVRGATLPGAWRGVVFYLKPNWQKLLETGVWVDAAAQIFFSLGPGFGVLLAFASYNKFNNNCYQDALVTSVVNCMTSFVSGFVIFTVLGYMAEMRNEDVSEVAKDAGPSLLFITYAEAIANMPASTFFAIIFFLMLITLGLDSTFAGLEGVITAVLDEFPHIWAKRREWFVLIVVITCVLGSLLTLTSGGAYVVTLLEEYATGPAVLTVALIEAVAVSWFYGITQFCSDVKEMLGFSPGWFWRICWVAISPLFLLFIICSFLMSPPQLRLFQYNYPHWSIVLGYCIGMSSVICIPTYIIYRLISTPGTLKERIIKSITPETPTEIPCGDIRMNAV
row,Compound,IC50 [nM]
1,CN[C@@H](CCOc1ccc([N+](=O)[O-])cc1)c1ccc(OC(=O)N(C)C)cc1,42
2,CN(C)C(=O)Oc1ccc([C@@H](N)CCOc2ccc([N+](=O)[O-])cc2)cc1,42
3,CNC(CCOc1ccc([N+](=O)[O-])cc1)c1ccc(OC(=O)N(C)C)cc1 (racemic),44
4,CN(C)C(=O)Oc1ccc2c(c1)C=CCN(C)[C@H]2CCOc1ccc([N+](=O)[O-])cc1,930
5,CN(C)C(=O)Oc1ccc2c(c1)C=CCN[C@@H]2CCOc1ccc([N+](=O)[O-])cc1,6
6,CN[C@H](CCOc1ccc([N+](=O)[O-])cc1)c1ccc(OC(=O)N(C)C)cc1,135

# Target: Acetylcholinesterase (Electrophorus electricus) (UniProt O42275)
# Test: Inhibition of electric eel AChE-induced amyloid beta 1 to 40 (unknown origin) aggregation at 100 uM incubated for 8 hrs by thioflavin-T fluorescence method relative to control
# Conditions: not given
# Chain of Acetylcholinesterase (Electrophorus electricus) (O42275 24-633 limits assumed): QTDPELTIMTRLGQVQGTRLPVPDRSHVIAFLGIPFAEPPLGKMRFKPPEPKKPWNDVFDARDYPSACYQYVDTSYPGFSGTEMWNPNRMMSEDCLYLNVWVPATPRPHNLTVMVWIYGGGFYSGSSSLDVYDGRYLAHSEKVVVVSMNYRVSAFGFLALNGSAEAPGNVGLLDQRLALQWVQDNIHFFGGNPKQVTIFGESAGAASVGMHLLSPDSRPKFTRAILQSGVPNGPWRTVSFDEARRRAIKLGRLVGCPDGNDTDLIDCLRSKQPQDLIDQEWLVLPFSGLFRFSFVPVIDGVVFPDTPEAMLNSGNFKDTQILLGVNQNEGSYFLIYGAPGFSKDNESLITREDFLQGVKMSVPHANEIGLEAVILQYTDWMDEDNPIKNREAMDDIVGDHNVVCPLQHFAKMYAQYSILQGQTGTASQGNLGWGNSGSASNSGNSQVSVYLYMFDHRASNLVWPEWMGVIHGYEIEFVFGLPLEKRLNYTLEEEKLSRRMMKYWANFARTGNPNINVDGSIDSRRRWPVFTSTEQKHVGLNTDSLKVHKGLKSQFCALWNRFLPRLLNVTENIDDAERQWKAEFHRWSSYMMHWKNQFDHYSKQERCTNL
row,Compound,inhibition [%]
1,O=C(/C=C\C(=O)Nc1ccc2c(c1)C(=O)c1cccc3ccnc-2c13)NCCc1c[nH]c2ccc(F)cc12,32.5
2,Cc1ccc2[nH]cc(CCNC(=O)/C=C\C(=O)Nc3ccc4c(c3)C(=O)c3cccc5ccnc-4c35)c2c1,57.7
3,COc1ccc2[nH]cc(CCNC(=O)/C=C\C(=O)Nc3ccc4c(c3)C(=O)c3cccc5ccnc-4c35)c2c1,50.4
4,O=C(/C=C/C(=O)Nc1ccc2c(c1)C(=O)c1cccc3ccnc-2c13)NCCc1c[nH]c2ccc(F)cc12,60.5

# Target: Acetylcholinesterase (Homo sapiens, UniProt P22303)
# Test: Potency index, ratio of tacrine IC50 for human erythrocyte acetylcholinesterase to compound IC50 for homogenate acetylcholinesterase
# Conditions: not given
# Chain of Acetylcholinesterase (Homo sapiens, UniProt P22303) (P22303 whole entry): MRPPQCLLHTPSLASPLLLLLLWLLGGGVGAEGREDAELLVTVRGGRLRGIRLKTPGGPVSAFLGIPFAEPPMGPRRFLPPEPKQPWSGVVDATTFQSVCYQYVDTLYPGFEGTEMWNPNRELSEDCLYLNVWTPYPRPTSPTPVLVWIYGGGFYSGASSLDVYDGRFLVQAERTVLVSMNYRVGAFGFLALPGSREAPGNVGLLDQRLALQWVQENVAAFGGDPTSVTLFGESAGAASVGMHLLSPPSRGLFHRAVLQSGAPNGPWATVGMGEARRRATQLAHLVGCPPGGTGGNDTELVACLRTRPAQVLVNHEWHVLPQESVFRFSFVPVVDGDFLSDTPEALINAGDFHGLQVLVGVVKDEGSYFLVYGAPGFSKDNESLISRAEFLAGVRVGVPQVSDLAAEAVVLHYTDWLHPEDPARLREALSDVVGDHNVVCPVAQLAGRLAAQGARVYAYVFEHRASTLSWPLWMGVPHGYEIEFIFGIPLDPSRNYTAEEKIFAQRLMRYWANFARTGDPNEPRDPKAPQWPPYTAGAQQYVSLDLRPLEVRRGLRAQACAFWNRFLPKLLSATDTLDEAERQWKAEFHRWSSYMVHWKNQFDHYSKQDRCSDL
row,Compound,Ratio IC50
1,O=C(CCCCCNc1c2c(nc3c(Cl)cccc13)CCCC2)NCCc1c[nH]c2ccccc12,70 to 43000
2,O=C(CCCCNc1c2c(nc3ccccc13)CCCC2)NCCc1c[nH]c2ccccc12,70 to 43000
3,COc1ccc2[nH]cc(CCNC(=O)CCCCCCCNc3c4c(nc5ccccc35)CCCC4)c2c1,70 to 43000
4,O=C(CCCCCNc1c2c(nc3ccc(F)cc13)CCCC2)NCCc1c[nH]c2ccccc12,70 to 43000
5,COc1ccc2[nH]cc(CCNC(=O)CCCCCNc3c4c(nc5cccc(Cl)c35)CCCC4)c2c1,70 to 43000
6,COc1ccc2[nH]cc(CCNC(=O)CCCCNc3c4c(nc5ccccc35)CCCC4)c2c1,70 to 43000
7,O=C(CCCCCNc1c2c(nc3cc(Cl)ccc13)CCCC2)NCCc1c[nH]c2ccccc12,70 to 43000
8,O=C(CCCCCCNc1c2c(nc3cc(Cl)ccc13)CCCC2)NCCc1c[nH]c2ccccc12,70 to 43000
9,O=C(CCCCCCCNc1c2c(nc3ccccc13)CCCC2)NCCc1c[nH]c2ccccc12,70 to 43000
10,O=C(CCCCCNc1c2c(nc3cc(Cl)cc(Cl)c13)CCCC2)NCCc1c[nH]c2ccccc12,70 to 43000
11,COc1ccc2[nH]cc(CCNC(=O)CCCCCCNc3c4c(nc5ccccc35)CCCC4)c2c1,70 to 43000
12,COc1ccc2[nH]cc(CCNC(=O)CCCCCNc3c4c(nc5cc(Cl)ccc35)CCCC4)c2c1,70 to 43000
13,COc1ccc2[nH]cc(CCNC(=O)CCCCCNc3c4c(nc5ccccc35)CCCC4)c2c1,70 to 43000
14,O=C(CCCCCCCNc1c2c(nc3cc(Cl)cc(Cl)c13)CCCC2)NCCc1c[nH]c2ccccc12,70 to 43000
15,COc1ccc2[nH]cc(CCNC(=O)CCCCCCNc3c4c(nc5cc(Cl)cc(Cl)c35)CCCC4)c2c1,70 to 43000
16,S=C(CCCCCNc1c2c(nc3ccccc13)CCCC2)NCCc1c[nH]c2ccccc12,70 to 43000
17,S=C(CCCCCCCNc1c2c(nc3ccccc13)CCCC2)NCCc1c[nH]c2ccccc12,70 to 43000
18,O=C(CCCCCCCNc1c2c(nc3ccccc13)CCCC2)NCCc1c[nH]c2ccc(O)cc12,70 to 43000
19,COc1ccc2[nH]cc(CCNC(=O)CCCCCNc3c4c(nc5cc(Cl)cc(Cl)c35)CCCC4)c2c1,70 to 43000
20,O=C(CCCCCCNc1c2c(nc3cc(Cl)cc(Cl)c13)CCCC2)NCCc1c[nH]c2ccccc12,70 to 43000
21,O=C(CCCCCCNc1c2c(nc3ccccc13)CCCC2)NCCc1c[nH]c2ccccc12,70 to 43000
22,O=C(CCCCCNc1c2c(nc3ccccc13)CCCC2)NCCc1c[nH]c2ccc(O)cc12,70 to 43000
23,O=C(CCCCCNc1c2c(nc3ccccc13)CCCC2)NCCc1c[nH]c2ccccc12,70 to 43000

# Target: T1, Acetylcholinesterase (Mus musculus, UniProt P21836)
# T1 sequence (P21836 whole entry): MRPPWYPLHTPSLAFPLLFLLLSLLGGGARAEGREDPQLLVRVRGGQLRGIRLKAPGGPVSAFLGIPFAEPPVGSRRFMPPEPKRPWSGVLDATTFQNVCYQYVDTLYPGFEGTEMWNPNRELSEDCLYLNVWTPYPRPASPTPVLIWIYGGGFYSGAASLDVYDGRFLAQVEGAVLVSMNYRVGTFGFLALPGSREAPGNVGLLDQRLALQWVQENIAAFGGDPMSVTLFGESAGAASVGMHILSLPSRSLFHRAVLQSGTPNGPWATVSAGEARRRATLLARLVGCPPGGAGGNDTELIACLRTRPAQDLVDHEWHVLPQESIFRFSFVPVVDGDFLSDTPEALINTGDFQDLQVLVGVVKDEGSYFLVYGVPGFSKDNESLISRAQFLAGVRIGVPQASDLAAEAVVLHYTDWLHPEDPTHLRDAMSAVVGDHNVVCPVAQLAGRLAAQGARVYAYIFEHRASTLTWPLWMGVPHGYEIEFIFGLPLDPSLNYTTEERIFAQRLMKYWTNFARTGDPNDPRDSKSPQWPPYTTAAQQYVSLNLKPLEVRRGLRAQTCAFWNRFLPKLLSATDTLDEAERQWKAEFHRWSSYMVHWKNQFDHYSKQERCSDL
# Test: Inhibition of mouse brain acetylcholinesterase by Ellman's method
# Conditions: not given
row,Compound,IC50 [nM]
1,CN[C@@H](CCOc1ccc([N+](=O)[O-])cc1)c1ccc(OC(=O)N(C)C)cc1,101
2,CN(C)C(=O)Oc1ccc([C@@H](N)CCOc2ccc([N+](=O)[O-])cc2)cc1,101
3,CNC(CCOc1ccc([N+](=O)[O-])cc1)c1ccc(OC(=O)N(C)C)cc1 (racemic),125
4,CN(C)C(=O)Oc1ccc2c(c1)C=CCN[C@@H]2CCOc1ccc([N+](=O)[O-])cc1,14
5,CN[C@H](CCOc1ccc([N+](=O)[O-])cc1)c1ccc(OC(=O)N(C)C)cc1,143

# Target: T2, Acetylcholinesterase (Rattus norvegicus, UniProt P37136)
# T2 sequence (P37136 whole entry): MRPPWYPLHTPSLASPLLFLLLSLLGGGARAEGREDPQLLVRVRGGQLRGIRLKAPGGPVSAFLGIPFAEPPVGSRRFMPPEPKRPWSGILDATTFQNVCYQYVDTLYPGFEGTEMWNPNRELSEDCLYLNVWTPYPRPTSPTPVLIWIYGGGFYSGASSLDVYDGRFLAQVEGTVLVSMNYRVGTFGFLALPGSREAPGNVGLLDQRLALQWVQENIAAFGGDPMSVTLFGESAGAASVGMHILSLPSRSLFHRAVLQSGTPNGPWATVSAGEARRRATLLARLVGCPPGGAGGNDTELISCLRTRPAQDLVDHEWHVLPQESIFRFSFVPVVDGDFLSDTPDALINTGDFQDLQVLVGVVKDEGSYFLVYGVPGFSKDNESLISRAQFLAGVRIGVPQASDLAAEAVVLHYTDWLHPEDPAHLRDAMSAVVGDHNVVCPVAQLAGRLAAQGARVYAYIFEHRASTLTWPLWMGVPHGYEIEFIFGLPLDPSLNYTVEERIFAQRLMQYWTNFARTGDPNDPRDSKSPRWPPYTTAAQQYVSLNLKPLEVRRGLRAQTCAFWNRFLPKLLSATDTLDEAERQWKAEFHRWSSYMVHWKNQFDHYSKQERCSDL
# Test: Antagonist activity at Acetylcholinesterase in Sprague-Dawley rat phrenic nerve-hemidiaphragm assessed as reversal of d-tubocurarine induced neuromuscular blockade after 15 mins
# Conditions: read-out: I50
row,Compound,IC50 [nM]
1,CC1=CC2Cc3nc4cc(Cl)ccc4c(N)c3C(C1)C2 (racemic) [HUPRINE Y],84.3
2,CC1=C[C@@H]2Cc3nc4cc(F)ccc4c(N)c3[C@H](C1)C2,48.6
3,CC1=CC2Cc3nc4ccccc4c(N)c3C(C1)C2 (racemic),176
4,"CC1=CC2Cc3nc4cc(Cl)ccc4c(N)c3C(C1)C2 (single isomer, unassigned; (-)) [HUPRINE Y]",31.6
5,CCC1=CC2Cc3nc4ccccc4c(N)c3C(C1)C2 (racemic),84

# Species on record: Homo sapiens
# Test: Selectivity index, ratio of IC50 for human plasma butyrylcholinesterase to IC50 for human erythrocyte acetylcholinesterase
# Conditions: not given
row,Compound,Selectivity Index
1,COc1cc2oc(-c3ccc(NCCNc4c5c(nc6cc(Cl)ccc46)CCCC5)cc3)cc(=O)c2c(OC)c1OC,742
2,COc1cc2oc(-c3ccc(NCCCCNc4c5c(nc6cc(Cl)ccc46)CCCC5)cc3)cc(=O)c2c(OC)c1OC,1690
3,COc1cc2oc(-c3ccc(NCCCNc4c5c(nc6cc(Cl)ccc46)CCCC5)cc3)cc(=O)c2c(OC)c1OC,92
